Here are results for 45 compounds from patent US20230303495A9, “PYRIDINE OXYNITRIDE, PREPARATION METHOD THEREFOR AND USE THEREOF” (Orion Corporation, priority 2019, published 2023).

Structures are written as SMILES.

T1 sequence (Q9Y5Y9 whole entry): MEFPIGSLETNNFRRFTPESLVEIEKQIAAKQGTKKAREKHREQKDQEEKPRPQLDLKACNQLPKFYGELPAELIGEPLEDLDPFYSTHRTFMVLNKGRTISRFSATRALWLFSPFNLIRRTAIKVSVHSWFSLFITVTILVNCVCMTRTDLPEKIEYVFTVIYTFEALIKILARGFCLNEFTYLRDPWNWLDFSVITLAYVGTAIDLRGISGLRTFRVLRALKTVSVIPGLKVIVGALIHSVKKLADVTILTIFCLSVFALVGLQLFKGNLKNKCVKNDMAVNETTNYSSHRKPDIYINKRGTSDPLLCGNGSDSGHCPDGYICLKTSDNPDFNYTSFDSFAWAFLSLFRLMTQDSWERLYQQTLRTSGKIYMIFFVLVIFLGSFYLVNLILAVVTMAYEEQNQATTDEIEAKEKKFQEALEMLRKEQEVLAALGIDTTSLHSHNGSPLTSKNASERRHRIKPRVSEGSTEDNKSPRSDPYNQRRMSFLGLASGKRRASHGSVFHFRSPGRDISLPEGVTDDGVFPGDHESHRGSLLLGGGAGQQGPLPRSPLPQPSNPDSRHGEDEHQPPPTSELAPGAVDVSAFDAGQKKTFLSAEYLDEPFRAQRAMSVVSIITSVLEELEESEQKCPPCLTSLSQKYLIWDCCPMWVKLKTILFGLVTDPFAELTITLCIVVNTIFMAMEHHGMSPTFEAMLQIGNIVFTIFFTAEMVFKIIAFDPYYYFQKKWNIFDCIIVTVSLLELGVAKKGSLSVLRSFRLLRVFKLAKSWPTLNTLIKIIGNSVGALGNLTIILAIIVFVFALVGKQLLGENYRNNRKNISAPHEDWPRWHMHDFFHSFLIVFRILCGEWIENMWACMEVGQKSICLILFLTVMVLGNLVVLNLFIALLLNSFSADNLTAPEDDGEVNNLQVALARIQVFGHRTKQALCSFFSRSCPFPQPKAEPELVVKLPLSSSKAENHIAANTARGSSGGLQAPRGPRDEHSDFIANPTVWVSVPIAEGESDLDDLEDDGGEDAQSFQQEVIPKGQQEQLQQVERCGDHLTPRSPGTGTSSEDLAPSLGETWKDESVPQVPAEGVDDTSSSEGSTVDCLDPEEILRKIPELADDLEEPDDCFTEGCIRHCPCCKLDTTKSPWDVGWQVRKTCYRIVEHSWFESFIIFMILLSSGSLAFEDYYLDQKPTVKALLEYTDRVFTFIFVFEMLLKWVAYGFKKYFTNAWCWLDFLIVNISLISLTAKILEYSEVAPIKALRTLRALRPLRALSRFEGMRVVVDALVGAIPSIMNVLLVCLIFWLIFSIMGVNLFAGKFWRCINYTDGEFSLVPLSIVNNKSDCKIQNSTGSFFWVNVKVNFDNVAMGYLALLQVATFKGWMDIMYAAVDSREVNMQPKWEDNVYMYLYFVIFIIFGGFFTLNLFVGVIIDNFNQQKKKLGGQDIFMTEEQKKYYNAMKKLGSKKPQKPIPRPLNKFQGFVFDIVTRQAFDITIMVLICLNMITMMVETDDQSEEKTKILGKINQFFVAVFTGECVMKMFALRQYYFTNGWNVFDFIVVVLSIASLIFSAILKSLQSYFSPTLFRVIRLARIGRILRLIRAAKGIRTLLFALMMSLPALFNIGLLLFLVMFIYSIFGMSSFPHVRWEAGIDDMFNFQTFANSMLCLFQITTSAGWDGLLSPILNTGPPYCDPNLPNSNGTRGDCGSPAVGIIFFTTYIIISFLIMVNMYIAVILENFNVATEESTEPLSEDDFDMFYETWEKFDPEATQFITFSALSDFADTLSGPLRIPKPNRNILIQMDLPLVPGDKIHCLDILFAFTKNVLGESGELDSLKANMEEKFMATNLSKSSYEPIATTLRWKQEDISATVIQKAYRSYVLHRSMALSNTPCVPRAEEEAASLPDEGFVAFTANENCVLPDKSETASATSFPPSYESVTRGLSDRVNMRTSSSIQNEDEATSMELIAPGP

One test addresses T1, NaV1.8 (Homo sapiens, UniProt Q9Y5Y9).
T1 construct: expressed in transfected cells
Kind of test: Whole-cell patch clamp blocking activity against NaV1.8 channel current. The conditions noted are these: CHO cell line stably expressing Nav1.8 (SCN10A: NM_006514), patch clamp. The test is classed as cell-based. On the procedure:
1. Test method: patch clamp technique was used to detect the influence of compounds on voltage-gated sodium channel (NaV) 1.1-1.8 subtype current
1) The specific information of the CHO cell line stably expressing the Nav1.8 channel was as follows: SCN10A: NM_006514
2) Cells were cultured in HAM'S/F-12 medium containing 10% fetal bovine serum and 10 μg/mL Blasticidin, 200 μg/mL Hygromycin B and 100 μg/mL Zeocin, culture temperature was 37° C. and the concentration of CO2 was 5%.
5) Patch clamp detection, before the experiment, the cells were separated with 0.25%—trypsin EDTA, inoculated into a 24 well plate with a density of 8*10^3 cells per well (final volume: 500 μL), tetracycline was added thereto, and experimental test was performed on the next day.
1) Extracellular fluid: 140 mM NaCl, 3.5 mM KCl, 2 mM CaCl2, 10 mM HEPES, 1.25 mM NaH2PO4, 1 mM MgCl2, 10 mM Glucose, pH=7.4 (NaOH).
2) Intracellular fluid: 50 mM CsCl, 10 mM NaCl, 10 mM HEPES, 20 mM EGTA, 60 mM CsF, pH=7.2 (CsOH).
The voltage stimulation scheme of whole-cell patch clamp recording of Nav channel current was as follows: first the membrane potential of the cell was clamped at −130 mV, and then the voltage was stepped to −40 mV or −20 mV at 10 mv step intervals for 8 s. The clamping voltage was maintained at −120 mV, and data was collected repeatedly every 20 seconds. The peak amplitude of its inward current was measured to determine its half-inactivation voltage.
The cell clamping potential was set at −120 mV. The resting and half-inactivation inhibition of sodium current was measured using double pulse mode. The double pulse mode was completed by two 0 mV depolarization test pulses (TP1 and TP2) lasting 50 ms. The conditional voltage between the two depolarization pulses was set near the half-inactivation voltage (lasting 8 s). […] The data acquisition was repeated at an interval of 20 s and the current peak was measured at the two test pulses.
When the current of the Nav channel recorded by the whole cell was stable, the drug was administered, after each drug concentration was applied for 5 minutes (or the current was stable), the next concentration would be tested, and multiple concentrations would be tested for each test compound. The cover glass covered with cells was placed in the recording bath of an inverted microscope, the test compound and the external liquid without compound flowed through the recording chambers in turns from low concentration to high concentration by gravity perfusion, so as to act on the cells, in the recording, the liquid exchange was carried out by vacuum pump. The current detected in each cell in the compound-free external fluid served as its own control group. Multiple cells were detected independently and repeatedly. All electrophysiological experiments were performed at room temperature.
First, the current after the action of each drug concentration and the blank control current were normalized, and then the blocking rate corresponding to each drug concentration was calculated. The mean and standard error were calculated for each concentration, and all the above values were calculated by Microsoft Excel 2013. In addition, the half-inhibitory concentration of each compound was calculated by IGOR software with the following equation: retardation rate=1/[1+(IC50/c)^h].
The dose-dependent effect was nonlinearly fitted with the above equation, wherein, c refers to the drug concentration, IC50 was the half inhibitory concentration, and h refers to the Hill coefficient. The curve fitting and the calculation of IC50 were completed by IGOR software (software version: 6.0.1.0).
Consider `COc1cc(F)ccc1Oc1cc(Cl)c(Cl)cc1C(=O)Nc1ccc[n+]([O-])c1` [Embodiment A5], for which the midpoint of inhibition, the IC50, lay at 7.4 nM. Consider `O=C(Nc1ccc[n+](O)c1)c1c(Oc2ccc(OC(F)(F)F)cc2)ccc(OC(F)(F)F)c1F` [Embodiment A19], for which the half-maximal inhibitory concentration (IC50) (usually the point on the concentration scale where inhibition reaches its midpoint) was 10 nM.

In turn, `O=C(Nc1ccc[n+]([O-])c1)c1c(Oc2ccc(OC(F)(F)F)cc2)cc(Cl)c(Cl)c1F` [Embodiment A22] had an IC50 of 0.32 nM. This IC50 is about 31-fold lower than that of the compound before.

The compound `O=C(Nc1cc[n+]([O-])nc1)c1c(Oc2ccc(OC(F)(F)F)cc2)ccc(C(F)(F)F)c1Cl` [Embodiment A27] had an IC50 of 0.64 nM. In turn, `O=C(Nc1ccn[n+]([O-])c1)c1c(Oc2ccc(OC(F)(F)F)cc2)ccc(C(F)(F)F)c1Cl` [Embodiment A28] gave an IC50 of 2.9 nM. Compared with the last compound, the IC50 is about 4.5-fold higher.

`O=C(Nc1cc[n+]([O-])nc1)c1c(Oc2ccc(OC(F)(F)F)cc2)ccc(Br)c1F` [Embodiment A33] gave an IC50 of 4.6 nM. Still for that read-out and setting: the value for `O=C(Nc1cc[n+]([O-])nc1)c1cc(Cl)c(Cl)cc1Oc1ccc(OC(F)(F)F)cc1` [Embodiment A35] was 3 nM; that for `O=C(Nc1cc[n+]([O-])nc1)c1cc(Cl)c(Cl)cc1Oc1ccc(OC(F)(F)F)c(F)c1` [Embodiment A37] was 3.2 nM; that for `O=C(Nc1ccn[n+]([O-])c1)c1cc(Cl)c(Cl)cc1Oc1ccc(OC(F)(F)F)c(F)c1` [Embodiment A38] was 7.3 nM. `O=C(Nc1ccc[n+](O)c1)c1c(Oc2ccc(OC(F)(F)F)cc2)ccc(C(F)(F)F)c1F` [Embodiment A42] yielded an IC50 of 3.6 nM. This IC50 is about 2-fold lower than that of the compound before.

As for `Cc1cc(OC(F)(F)F)ccc1Oc1ccc(C(F)(F)F)c(F)c1C(=O)Nc1ccc[n+](O)c1` [Embodiment A51], the half-maximal inhibitory concentration (IC50) is 2.7 nM. With `O=C(Nc1ccc[n+](O)c1)c1c(Oc2ccc(OC(F)(F)F)cc2)ccc(C(F)(F)F)c1Cl` [Embodiment A57], 1.8 nM corresponded to half-maximal inhibition (IC50). Against the preceding compound, the IC50 is about 1.5-fold lower.

For the compound `O=C(Nc1cc[n+]([O-])nc1)c1c(Oc2ccc(OC(F)(F)F)cc2)cnc(C(F)(F)F)c1F` [Embodiment A61], the IC50 was 10.2 nM. Regarding `O=C(Nc1ccc[n+]([O-])c1)c1c(Oc2ccc(OC(F)(F)F)cc2)ccc(I)c1F` [Embodiment A73], the midpoint of inhibition, the IC50, lay at 3.2 nM. Consider `O=C(Nc1ccc[n+](O)c1)c1c(Oc2ccc(OC(F)(F)F)cc2)ccc(Br)c1F` [Embodiment A74], for which the IC50 came to 3.5 nM. The compound `O=C(Nc1cc[n+]([O-])nc1)c1c(F)cc(C(F)(F)F)cc1Oc1ccc(OC(F)(F)F)cc1` [Embodiment A80] displayed a half-maximal inhibitory concentration (IC50) of 8.4 nM. `COc1cc(F)ccc1Oc1cc(C(F)(F)F)c(Cl)cc1C(=O)Nc1ccc[n+]([O-])c1` [Embodiment A85]: the IC50 came out at 1.7 nM.

Still in this test, the particulars now being: against NaV1.8 at 100 nM, CHO cell line stably expressing Nav1.8, patch clamp.
On to `Cc1cc(F)ccc1Oc1cc(S(F)(F)(F)(F)F)ccc1C(=O)Nc1ccc[n+]([O-])c1` [Embodiment A8], for which the “Blocking rate (%) @100 nM” value came to 81.85%. Consider `O=C(Nc1ccc[n+]([O-])c1)c1c(Oc2ccc(OC(F)F)cc2)ccc(C(F)(F)F)c1F` [Embodiment A16], for which the “Blocking rate (%) @100 nM” value amounted to 85.08%.

On to `O=C(Nc1ccc[n+]([O-])c1)c1c(Oc2ccc(OC(F)(F)F)cc2)ccc(C(F)(F)C(F)(F)F)c1F` [Embodiment A18], for which the “Blocking rate (%) @100 nM” value is given as 96.02%. Consider `O=C(Nc1ccc[n+](O)c1)c1c(F)cc(OC(F)(F)F)cc1Oc1ccc(OC(F)(F)F)cc1` [Embodiment A20], for which the “Blocking rate (%) @100 nM” value was 87.14%. As to `O=C(Nc1ccc[n+](O)c1)c1c(Oc2ccc(OC(F)(F)F)c(F)c2)cc(Cl)c(Cl)c1F` [Embodiment A21], the “Blocking rate (%) @100 nM” value is 98.02%. In the case of `O=C(Nc1cc[n+]([O-])nc1)c1c(Oc2ccc(OC(F)(F)F)cc2)ccc(I)c1F` [Embodiment A23], the “Blocking rate (%) @100 nM” value amounted to 97.04%. As for `O=C(Nc1ccn[n+]([O-])c1)c1c(Oc2ccc(OC(F)(F)F)cc2)ccc(I)c1F` [Embodiment A24], the “Blocking rate (%) @100 nM” value is 91.28%. Regarding `O=C(Nc1cc[n+]([O-])nc1)c1ccc(C(F)(F)F)cc1Oc1ccc(OC(F)(F)F)c(F)c1` [Embodiment A26], the “Blocking rate (%) @100 nM” value came out at 79.32%. For the compound `O=C(Nc1ccc[n+]([O-])c1)c1c(Cl)cc(C(F)(F)F)cc1Oc1ccc(OC(F)(F)F)cc1` [Embodiment A29], the “Blocking rate (%) @100 nM” value is on record as 87.63%. As for `O=C(Nc1ccc[n+]([O-])c1)c1c(Oc2ccc(OCC(F)(F)F)cc2)ccc(Br)c1Cl` [Embodiment A31], the “Blocking rate (%) @100 nM” value came out at 88.88%. Take `O=C(Nc1ccn[n+]([O-])c1)c1c(Oc2ccc(OC(F)(F)F)cc2)ccc(Br)c1F` [Embodiment A34]: the “Blocking rate (%) @100 nM” value amounted to 90.16%. As to `O=C(Nc1ccn[n+]([O-])c1)c1cc(Cl)c(Cl)cc1Oc1ccc(OC(F)(F)F)cc1` [Embodiment A36], the “Blocking rate (%) @100 nM” value stood at 87.40%.

As for `O=C(Nc1ccc[n+]([O-])c1)c1c(Oc2ccc(OC(F)(F)F)cc2)cc(Cl)c(C(F)(F)F)c1F` [Embodiment A40], the “Blocking rate (%) @100 nM” value came out at 99.91%. As for `O=C(Nc1cc[n+]([O-])c(Cl)c1)c1c(Oc2ccc(OC(F)(F)F)cc2)ccc(C(F)(F)F)c1F` [Embodiment A43], the “Blocking rate (%) @100 nM” value was 76.10%. Still for that read-out and setting: the value for `O=C(Nc1cc[n+]([O-])cc1)c1c(Oc2ccc(OC(F)(F)F)cc2)ccc(C(F)(F)F)c1F` [Embodiment A44] was 77.61%. Still for that read-out and setting: the same measure for `O=C(Nc1ccn[n+]([O-])c1)c1c(Oc2ccc(OC(F)(F)F)cc2)ccc(C(F)(F)F)c1F` [Embodiment A45]: 78.46%; for `O=C(Nc1ccc[n+]([O-])c1)c1c(Oc2ccc(F)cc2Cl)ccc(C(F)(F)F)c1F` [Embodiment A50]: 79.66%. Regarding `O=C(Nc1ccc[n+]([O-])c1)c1c(Oc2ccc(OC(F)(F)F)cc2F)ccc(C(F)(F)F)c1F` [Embodiment A52], the “Blocking rate (%) @100 nM” value came out at 80.75%.

Consider `O=C(Nc1ccc[n+](O)c1)c1c(Oc2ccc(OCC(F)(F)F)cc2)ccc(C(F)(F)F)c1F` [Embodiment A53], for which the “Blocking rate (%) @100 nM” value was 85.77%. On the same count and under the same terms, the value for `O=C(Nc1ccc[n+](O)c1)c1c(Oc2ccc(OC(F)(F)F)cc2Cl)ccc(C(F)(F)F)c1F` [Embodiment A54] was 94.99%; that for `O=C(Nc1ccc[n+]([O-])c1)c1c(Oc2ccc(OC(F)(F)F)cc2)cnc(C(F)(F)F)c1F` [Embodiment A59] was 87.57%; that for `O=C(Nc1ccc[n+](O)c1)c1c(Oc2ccc(OC(F)(F)F)c(F)c2)cnc(C(F)(F)F)c1F` [Embodiment A62] was 89.79%. On to `O=C(Nc1ccc[n+]([O-])c1)c1c(Oc2ccc(OC(F)(F)F)cc2)cnc(C(F)(F)F)c1Cl` [Embodiment A63], for which the “Blocking rate (%) @100 nM” value came to 93.13%.

For `O=C(Nc1cc[n+]([O-])nc1)c1c(Oc2ccc(OC(F)(F)F)cc2)cnc(C(F)(F)F)c1Cl` [Embodiment A65], the “Blocking rate (%) @100 nM” value was 93.18%.

For the compound `O=C(Nc1cc[n+]([O-])nc1)c1c(Oc2ccc(OC(F)F)cc2)ccc(C(F)(F)F)c1F` [Embodiment A72], the “Blocking rate (%) @100 nM” value is reported as 85.63%.

Take `O=C(Nc1ccc[n+]([O-])c1)c1c(Oc2ccc(OC(F)(F)F)cc2)ccc(Cl)c1F` [Embodiment A75]: the “Blocking rate (%) @100 nM” value is recorded as 88.87%.

For `COc1cc(Oc2ccc(OC(F)(F)F)cc2)c(C(=O)Nc2ccc[n+]([O-])c2)c(F)c1C(F)(F)F` [Embodiment A78], the “Blocking rate (%) @100 nM” value is reported as 96.55%.

Turning to `O=C(Nc1cc[n+]([O-])nc1)c1c(Oc2ccc(OC(F)(F)F)c(F)c2)cnc(C(F)(F)F)c1F` [Embodiment A83], the “Blocking rate (%) @100 nM” value came to 84.98%.
